Source: ChEMBL document CHEMBL2046269, “Phthalide and isocoumarin derivatives produced by an Acremonium sp. isolated from a mangrove Rhizophora apiculata” (2012)
Converted amounts (≈) assume the structure as drawn.

Test system: Candida albicans
Test: Antifungal activity against Candida albicans NCPF 3153 after 15 hrs by colorimetric broth microdilution test
Format: functional
Details: NCPF 3153, 15 h

Compound: C[C@H]1CCC/C=C/[C@@H]2C[C@H](O)C[C@H]2[C@H](O)/C=C/C(=O)O1 [BREFELDIN A]
- MIC: 32 µg/mL (≈ 114 µM)
